Data from patent publication US20160272617A1, “SUBSTITUTED PHENYLALANINE DERIVATIVES” (BAYER PHARMA AKTIENGESELLSCHAFT, priority 2013, published 2016).
Where a name gives a salt, the structure may show the parent alone.

Tests used:
[1] = system: human and animal plasma; test: Determination of anticoagulatory activity: activated partial thromboplastin time (aPTT) in plasma; settings: concentration of test substance which brings about a 1.5-fold extension of the aPTT; plasma species not given
Summary of the method: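 Citrated plasma (1:9, 0.11 M citrate; 4000 g, 15 min) from human or animal blood incubated with test compound and cephalin/kaolin PTT reagent for 3 min at 37° C.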

[2] = target: T1, human factor XIa (Homo sapiens, UniProt P03951); test: Measurement of FXIa inhibition (fluorogenic peptide substrate Boc-Glu(OBzl)-Ala-Arg-AMC); format: biochemical; settings: factor XIa from Kordia, 15 min preincubation, 30 min at 22° C., fluorescence
T1 construct: purchased Kordia
Summary of the method: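 Released AMC fluorescence (360/460 nm) read after 30 min at 22 °C. The reaction was started with Boc-Glu(OBzl)-Ala-Arg-AMC (10 μM stock) after a 15 min preincubation of the enzyme (0.45 nM stock) with compound (final 50 μM to 0.00013 μM).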

T1 sequence (P03951 388-625 limits assumed): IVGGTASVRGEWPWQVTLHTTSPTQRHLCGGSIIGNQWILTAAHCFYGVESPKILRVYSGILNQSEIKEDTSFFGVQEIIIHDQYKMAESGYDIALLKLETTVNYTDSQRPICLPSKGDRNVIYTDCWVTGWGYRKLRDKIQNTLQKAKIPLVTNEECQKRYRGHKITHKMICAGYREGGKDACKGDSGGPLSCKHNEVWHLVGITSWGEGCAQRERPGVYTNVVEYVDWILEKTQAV
T1 sequence (P03951 19-387 partner limits assumed): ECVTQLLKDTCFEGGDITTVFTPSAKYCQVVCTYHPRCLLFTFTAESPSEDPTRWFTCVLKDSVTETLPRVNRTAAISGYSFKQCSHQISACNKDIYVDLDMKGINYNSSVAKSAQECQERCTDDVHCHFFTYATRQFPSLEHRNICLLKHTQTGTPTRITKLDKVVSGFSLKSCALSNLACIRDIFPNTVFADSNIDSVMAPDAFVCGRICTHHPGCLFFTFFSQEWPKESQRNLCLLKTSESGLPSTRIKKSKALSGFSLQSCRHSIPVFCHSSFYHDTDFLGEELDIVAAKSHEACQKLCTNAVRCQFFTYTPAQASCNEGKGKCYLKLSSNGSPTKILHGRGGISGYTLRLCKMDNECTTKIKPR

| SMILES | aPTT [1] [µmol/L] | IC50 [2] [nM] |
| --- | --- | --- |
| COC(=O)C(F)(F)C(F)(F)c1n[nH]c(-c2ccc(NC(=O)[C@H](Cc3ccc(-c4ccc(C(=O)NC5CCNCC5)cc4C)cc3)NC(=O)[C@H]3CC[C@H](CN)CC3)cc2)n1 [Example 129, Methyl 3-{5-[4-({(2S)-2-({[trans-4-(aminomethyl)cyclohexyl]carbonyl}amino)-3-[2′-methyl-4′-(piperidin-4-ylcarbamoyl)biphenyl-4-yl]propanoyl}amino)phenyl]-1H-1,2,4-triazol-3-yl}-2,2,3,3-tetrafluoropropanoate hydrochloride] | 0.09 | 1.8 |
| CN(C)C1CCC(NC(=O)c2ccc(-c3ccc(C[C@H](NC(=O)[C@H]4CC[C@H](CN)CC4)C(=O)Nc4ccc(-c5nc(C(F)(F)C(F)(F)C(=O)O)n[nH]5)cc4)cc3)c(C(F)(F)F)c2)CC1 (stereo partly drawn) [Example 132, 3-{5-[4-({(2S)-2-({[trans-4-(Aminomethyl)cyclohexyl]carbonyl}amino)-3-[4′-{[4-(dimethyl-amino)cyclohexyl]carbamoyl}-2′-(trifluoromethyl)biphenyl-4-yl]propanoyl}amino)phenyl]-1H-1,2,4-triazol-3-yl}-2,2,3,3-tetrafluoropropanoic acid hydrochloride] | 0.05 | 1.6 |
| Cc1cc(C(=O)NC2CCCNC2=O)ccc1-c1ccc(C[C@H](NC(=O)[C@H]2CC[C@H](CN)CC2)C(=O)Nc2ccc3cn[nH]c3c2)cc1 (stereo partly drawn) [Example 143, 4′-[(2S)-2-({[trans-4-(Aminomethyl)cyclohexyl]carbonyl}amino)-3-(1H-indazol-6-ylamino)-3-oxopropyl]-2-methyl-N-(2-oxopiperidin-3-yl)biphenyl-4-carboxamide hydrochloride] | 0.07 | 2.3 |
| Cc1cc(C(=O)NC2CCC(N(C)C)CC2(C)C)ccc1-c1ccc(C[C@H](NC(=O)[C@H]2CC[C@H](CN)CC2)C(=O)Nc2ccc(-c3nnn[nH]3)cc2)cc1 (stereo partly drawn) [Example 144, 4′-[(2S)-2-({[trans-4-(Aminomethyl)cyclohexyl]carbonyl}amino)-3-oxo-3-{[4-(1H-tetrazol-5-yl)phenyl]amino}propyl]-N-[4-(dimethylamino)-2,2-dimethylcyclohexyl]-2-methylbiphenyl-4-carboxamide hydrochloride] | 0.06 | 1.8 |
| Cc1cc(C(=O)N[C@@H]2CCNC2=O)ccc1-c1ccc(C[C@H](NC(=O)[C@H]2CC[C@H](CN)CC2)C(=O)Nc2ccc3cn[nH]c3c2)cc1 [Example 145, 4′-[(2S)-2-({[trans-4-(Aminomethyl)cyclohexyl]carbonyl}amino)-3-(1H-indazol-6-ylamino)-3-oxopropyl]-2-methyl-N-[(3R)-2-oxopyrrolidin-3-yl]biphenyl-4-carboxamide hydrochloride] | 0.07 | 3.2 |
| Cc1cc(C(=O)NC2CCC(N(C)Cc3ccccc3)CC2)ccc1-c1ccc(C[C@H](NC(=O)[C@H]2CC[C@H](CN)CC2)C(=O)Nc2ccc(-c3nnn[nH]3)cc2)cc1 (stereo partly drawn) [Example 146, 4′-[(2S)-2-({[trans-4-(Aminomethyl)cyclohexyl]carbonyl}amino)-3-oxo-3-{[4-(1H-tetrazol-5-yl)phenyl]amino}propyl]-N-{4-[benzyl(methyl)amino]cyclohexyl}-2-methylbiphenyl-4-carboxamide hydrochloride] | 0.07 | 1.8 |
| CNC1CCC(NC(=O)c2ccc(-c3ccc(C[C@H](NC(=O)[C@H]4CC[C@H](CN)CC4)C(=O)Nc4ccc(-c5nnn[nH]5)cc4)cc3)c(C)c2)CC1 (stereo partly drawn) [Example 147, 4′-[(2S)-2-({[trans-4-(Aminomethyl)cyclohexyl]carbonyl}amino)-3-oxo-3-{[4-(1H-tetrazol-5-yl)phenyl]amino}propyl]-2-methyl-N-[4-(methylamino)cyclohexyl]biphenyl-4-carboxamide hydrochloride] | 0.01 | 1.7 |
| Cc1cc(C(=O)NC2CCC(N(C)C)CC2)ccc1-c1ccc(C[C@H](NC(=O)[C@H]2CC[C@H](CN)CC2)C(=O)Nc2ccc(-c3nnc(C(F)(F)C(F)(F)C(F)(F)C(=O)O)[nH]3)cc2)cc1 (stereo partly drawn) [Example 148, 4-[5-(4-{[(2S)-2-({[trans-4-(Aminomethyl)cyclohexyl]carbonyl}amino)-3-(4′-{[4-(dimethylamino)cyclohexyl]carbamoyl}-2′-methylbiphenyl-4-yl)propanoyl]amino}phenyl)-4H-1,2,4-triazol-3-yl]-2,2,3,3,4,4-hexafluorobutanoic acid hydrochloride] | 0.07 | 1 |
| Cc1cc(C(=O)NC2CCNCC2(C)C)ccc1-c1ccc(C[C@H](NC(=O)[C@H]2CC[C@H](CN)CC2)C(=O)Nc2ccc(-c3nnn[nH]3)cc2)cc1 (stereo partly drawn) [Example 149, 4′-[(2S)-2-({[trans-4-(Aminomethyl)cyclohexyl]carbonyl}amino)-3-oxo-3-{[4-(1H-tetrazol-5-yl)phenyl]amino}propyl]-N-(3,3-dimethylpiperidin-4-yl)-2-methylbiphenyl-4-carboxamide hydrochloride] | 0.04 | 1.8 |
| CCN(C)C1CCC(NC(=O)c2ccc(-c3ccc(C[C@H](NC(=O)[C@H]4CC[C@H](CN)CC4)C(=O)Nc4ccc(-c5nnn[nH]5)cc4)cc3)c(C)c2)CC1 (stereo partly drawn) [Example 150, 4′-[(2S)-2-({[trans-4-(Aminomethyl)cyclohexyl]carbonyl}amino)-3-oxo-3-{[4-(1H-tetrazol-5-yl)phenyl]amino}propyl]-N-{4-[ethyl(methyl)amino]cyclohexyl}-2-methylbiphenyl-4-carboxamide hydrochloride] | 0.07 | 2.5 |
| COC(=O)C1CCC(NC(=O)c2ccc(-c3ccc(C[C@H](NC(=O)[C@H]4CC[C@H](CN)CC4)C(=O)Nc4ccc(-c5nnn[nH]5)cc4)cc3)c(C)c2)C(=O)N1 (stereo partly drawn) [Example 151, Methyl 5-[({4′-[(2S)-2-({[trans-4-(aminomethyl)cyclohexyl]carbonyl}amino)-3-oxo-3-{[4-(1H-tetrazol-5-yl)phenyl]amino}propyl]-2-methylbiphenyl-4-yl}carbonyl)amino]-6-oxopiperidine-2-carboxylate hydrochloride] | 0.1 | 0.97 |
| Cc1cc(C(=O)NC2CCNCC2)ccc1-c1ccc(C[C@H](NC(=O)[C@H]2CC[C@H](CN)CC2)C(=O)Nc2ccc(-c3nnc(CCC(=O)O)[nH]3)cc2)cc1 [Example 152, 3-{(5-[4-({(2S)-2-({[trans-4-(Aminomethyl)cyclohexyl]carbonyl}amino)-3-[2′-methyl-4′-(piperidin-4-ylcarbamoyl)biphenyl-4-yl]propanoyl}amino)phenyl]-4H-1,2,4-triazol-3-yl}propanoic acid hydrochloride] | 0.7 | 5.3 |
| Cc1cc(C(=O)N[C@H]2CCNC2)ccc1-c1ccc(C[C@H](NC(=O)[C@H]2CC[C@H](CN)CC2)C(=O)Nc2ccc(-c3nnc(C(F)(F)C(F)(F)C(=O)O)[nH]3)cc2)cc1 [Example 153, 3-[5-(4-{[(2S)-2-({[trans-4-(Aminomethyl)cyclohexyl]carbonyl}amino)-3-{2′-methyl-4′-[(3S)-pyrrolidin-3-ylcarbamoyl]biphenyl-4-yl}propanoyl]amino}phenyl)-4H-1,2,4-triazol-3-yl]-2,2,3,3-tetrafluoropropanoic acid hydrochloride] | 0.08 | 1.8 |
